# Source: ChEMBL document CHEMBL4507295 (2021)
# Tests used:
# [1] = target: Neutrophil elastase (Homo sapiens) (UniProt P08246); assay: Peptidase, ELA2 (Neutrophil Elastase 2) Eurofins-Panlabs enzyme assay; conditions: Compound concentration 10.0 uM
# [2] = target: Serine/threonine-protein kinase BRSK1 (Homo sapiens) (UniProt Q8TDC3); conditions: Compound concentration 1000.0 nM
# [3] = target: Type-1 angiotensin II receptor (Homo sapiens) (UniProt P30556); assay: Angiotensin AT1 Eurofins-Panlabs radioligand binding assay; conditions: Compound concentration 10.0 uM
# [4] = target: GABA-A receptor; alpha-5/beta-3/gamma-2 (Homo sapiens) (UniProt P18507+P28472+P31644); assay: GABA-alpha5beta3gamma2 (Muscimol binding) Eurofins-Panlabs radioligand binding assay; format: protein-complex assay; parameters: ligand concentration 8 nM; conditions: Compound concentration 10.0 uM
# [5] = target: Histamine H2 receptor (Homo sapiens) (UniProt P25021); conditions: Compound concentration 10.0 uM
# [6] = target: Peroxisome proliferator-activated receptor alpha (Homo sapiens) (UniProt Q07869); assay: PPARalpha Eurofins-Panlabs radioligand binding assay; conditions: Compound concentration 10.0 uM
# [7] = target: D(3) dopamine receptor (Homo sapiens) (UniProt P35462); conditions: Compound concentration 10.0 uM
# [8] = target: Somatostatin receptor type 4 (Homo sapiens) (UniProt P31391); assay: Somatostatin sst4 Eurofins-Panlabs radioligand binding assay; parameters: ligand concentration 0.1 nM, non-specific ligand with concentration 1 µM Somatostatin-14, incubation time 45 min, incubation temperature 25 °C; conditions: Compound concentration 10.0 uM
# [9] = target: High affinity choline transporter 1 (Homo sapiens) (UniProt Q9GZV3); assay: Transporter, Choline Eurofins-Panlabs radioligand binding assay; parameters: ligand concentration 0.75 nM; conditions: Rattus norvegicus; Compound concentration 10.0 uM
# [10] = target: BMP-2-inducible protein kinase (Homo sapiens) (UniProt Q9NSY1); conditions: Compound concentration 1000.0 nM
# [11] = target: 5-hydroxytryptamine receptor 4 (Homo sapiens) (UniProt Q13639); assay: Inhibition of Serotonin (5-Hydroxytryptamine) 5-HT4 at 10 µM in the Eurofins-Panlabs radioligand binding assay (Eurofins_assay_272000); conditions: Cavia porcellus; Compound concentration 10.0 uM
# [12] = target: Voltage-dependent N-type calcium channel subunit alpha-1B (Homo sapiens) (UniProt Q00975); assay: Inhibition of Calcium Channel N-Type at 10 µM in the Eurofins-Panlabs radioligand binding assay (Eurofins_assay_216000); conditions: Rattus norvegicus; Compound concentration 10.0 uM
# [13] = target: Mu-type opioid receptor (Homo sapiens) (UniProt P35372); conditions: Compound concentration 10.0 uM
# [14] = target: Glutamate receptor ionotropic, kainate (Rattus norvegicus) (UniProt P22756+Q01812+P42260+P42264+Q63273); assay: Inhibition of Glutamate, Kainate at 10 µM in the Eurofins-Panlabs radioligand binding assay (Eurofins_assay_232700); conditions: Compound concentration 10.0 uM
# [15] = target: Protein kinase C alpha type (Homo sapiens, UniProt P17252); assay: Inhibition of Protein Serine/Threonine Kinase, PRKCA (PKCα) at 10 µM in the Eurofins-Panlabs enzyme assay (Eurofins_assay_180010); parameters: substrate with concentration Histone, incubation time 10 min, incubation temperature 25 °C
# [16] = target: Acetylcholinesterase (Homo sapiens) (UniProt P22303); conditions: Compound concentration 10.0 uM
# [17] = target: Serine/threonine-protein kinase DCLK1 (Homo sapiens) (UniProt O15075); conditions: Compound concentration 1000.0 nM
# [18] = target: C-X-C chemokine receptor type 2 (Homo sapiens) (UniProt P25025); assay: Inhibition of Chemokine CXCR2 (IL-8RB) at 10 µM in the Eurofins-Panlabs radioligand binding assay (Eurofins_assay_244500); conditions: Compound concentration 10.0 uM
# [19] = target: Synaptic vesicular amine transporter (Homo sapiens) (UniProt Q05940); conditions: Oryctolagus cuniculus; Compound concentration 10.0 uM
# [20] = target: Galanin receptor type 2 (Homo sapiens) (UniProt O43603); assay: Galanin GAL2 Eurofins-Panlabs radioligand binding assay; parameters: ligand concentration 0.02 nM; conditions: Compound concentration 10.0 uM
# Rattus norvegicus [21] = organism: Rattus norvegicus; assay: Potassium Channel [SKCA] Eurofins-Panlabs radioligand binding assay; parameters: ligand concentration 0.005 nM; conditions: Compound concentration 10.0 uM
# Caspase-8 (Homo sapiens) = Caspase-8 (Homo sapiens) (UniProt Q14790); assay: Peptidase, CASP8 (Caspase 8) Eurofins-Panlabs enzyme assay; conditions: Compound concentration 10.0 uM
# Rattus norvegicus [22] = organism: Rattus norvegicus; assay: Adrenergic α1, Non-selective Eurofins-Panlabs radioligand binding assay; format: protein assay; conditions: Compound concentration 10.0 uM
# [23] = target: Leucine-rich repeat serine/threonine-protein kinase 2 (Homo sapiens) (UniProt Q5S007); conditions: Compound concentration 1000.0 nM
# [24] = target: Vasopressin V1a receptor (Homo sapiens) (UniProt P37288); assay: Vasopressin V1A Eurofins-Panlabs radioligand binding assay; parameters: ligand concentration 0.01 nM; conditions: Compound concentration 10.0 uM
# [25] = target: Polyunsaturated fatty acid 5-lipoxygenase (Homo sapiens) (UniProt P09917); assay: Lipoxygenase 5-LO Eurofins-Panlabs enzyme assay; conditions: Compound concentration 10.0 uM
# [26] = target: Tyrosine-protein phosphatase non-receptor type 2 (Homo sapiens, UniProt P17706); assay: Panlabs assay; parameters: compound concentration 10 uM
# [27] = target: voltage-gated sodium channel, site 2 (Rattus norvegicus, UniProt F1LQQ7+O08562+O88420+O88457+P04774+P04775+P08104+P15389+P15390+Q62968); assay: Inhibition of Sodium Channel, Site 2 at 10 µM in the Eurofins-Panlabs radioligand binding assay (Eurofins_assay_279510); format: protein assay; parameters: ligand concentration 5 nM, non-specific ligand with concentration 100 µM Veratridine, incubation time 60 min, incubation temperature 37 °C; conditions: male, Wistar, rat whole brain (except cerebellum) membranes, probe [3H] Batrachotoxinin (radioligand, 5 nM), compound concentration 10 uM
# [28] = test system: Receptor-type tyrosine-protein kinase FLT3 (Homo sapiens), P36888 [UNDEFINED MUTATION]; conditions: Compound concentration 1000.0 nM
# [29] = target: Alpha-2C adrenergic receptor (Homo sapiens) (UniProt P18825); assay: Adrenergic alpha2C Eurofins-Panlabs radioligand binding assay; parameters: ligand concentration 1 nM, non-specific ligand with concentration 10 µM WB-4101, incubation time 60 min, incubation temperature 25 °C; conditions: Compound concentration 10.0 uM
# monoamine oxidase MAO-A = monoamine oxidase MAO-A (Homo sapiens, UniProt P21397); assay: Inhibition of Monoamine Oxidase MAO-A at compound concentration of 10.0 uM in the Eurofins-Panlabs enzyme assay (Eurofins_assay_140010); parameters: substrate with concentration 50 uM Kynuramine, incubation time 60 min, incubation temperature 37 C; conditions: recombinant human MAO-A expressed in insect Hi5 cells, probe kynuramine (50 uM), compound concentration 10 uM
# [30] = target: Histamine H1 receptor (Homo sapiens) (UniProt P35367); conditions: Compound concentration 10.0 uM
# [31] = target: Insulin receptor (Homo sapiens) (UniProt P06213); conditions: Rattus norvegicus; Compound concentration 10.0 uM
# [32] = target: 5-hydroxytryptamine receptor 6 (Homo sapiens) (UniProt P50406); conditions: Compound concentration 10.0 uM
# [33] = target: Alpha-2C adrenergic receptor (Homo sapiens) (UniProt P18825); conditions: Compound concentration 10.0 uM
# BMP-2-inducible protein kinase (Homo sapiens), sequence (Q9NSY1 whole entry, looked up): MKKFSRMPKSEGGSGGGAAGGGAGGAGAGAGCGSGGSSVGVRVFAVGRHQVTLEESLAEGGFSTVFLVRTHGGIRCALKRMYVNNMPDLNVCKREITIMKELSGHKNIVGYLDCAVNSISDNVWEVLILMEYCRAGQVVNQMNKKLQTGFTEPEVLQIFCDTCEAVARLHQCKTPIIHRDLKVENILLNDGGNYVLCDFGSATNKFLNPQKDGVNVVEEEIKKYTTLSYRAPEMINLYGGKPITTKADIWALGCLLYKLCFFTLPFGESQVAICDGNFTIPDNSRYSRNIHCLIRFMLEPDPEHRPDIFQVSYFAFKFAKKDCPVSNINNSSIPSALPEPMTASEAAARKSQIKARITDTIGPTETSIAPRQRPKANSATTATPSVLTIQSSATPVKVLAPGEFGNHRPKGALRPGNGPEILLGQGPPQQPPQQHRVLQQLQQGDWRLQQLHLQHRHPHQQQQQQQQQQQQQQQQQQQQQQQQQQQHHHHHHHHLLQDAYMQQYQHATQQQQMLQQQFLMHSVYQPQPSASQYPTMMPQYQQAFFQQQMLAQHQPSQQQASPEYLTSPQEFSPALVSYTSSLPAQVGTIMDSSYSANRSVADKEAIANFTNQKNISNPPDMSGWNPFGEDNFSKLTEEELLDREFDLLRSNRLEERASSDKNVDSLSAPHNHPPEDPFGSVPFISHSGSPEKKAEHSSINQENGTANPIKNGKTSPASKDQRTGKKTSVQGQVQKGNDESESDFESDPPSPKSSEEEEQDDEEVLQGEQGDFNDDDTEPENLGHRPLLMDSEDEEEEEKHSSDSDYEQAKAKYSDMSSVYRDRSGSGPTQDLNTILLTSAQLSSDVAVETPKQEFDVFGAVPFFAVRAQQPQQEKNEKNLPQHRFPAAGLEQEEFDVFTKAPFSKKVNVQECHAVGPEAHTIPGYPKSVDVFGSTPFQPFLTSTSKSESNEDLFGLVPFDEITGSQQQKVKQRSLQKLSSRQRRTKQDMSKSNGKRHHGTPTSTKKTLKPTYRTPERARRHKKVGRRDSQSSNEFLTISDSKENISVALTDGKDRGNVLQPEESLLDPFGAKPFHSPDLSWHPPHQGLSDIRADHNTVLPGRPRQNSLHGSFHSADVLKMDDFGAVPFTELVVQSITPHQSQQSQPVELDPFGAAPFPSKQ
# Alpha-2C adrenergic receptor (Homo sapiens), sequence (P18825 whole entry): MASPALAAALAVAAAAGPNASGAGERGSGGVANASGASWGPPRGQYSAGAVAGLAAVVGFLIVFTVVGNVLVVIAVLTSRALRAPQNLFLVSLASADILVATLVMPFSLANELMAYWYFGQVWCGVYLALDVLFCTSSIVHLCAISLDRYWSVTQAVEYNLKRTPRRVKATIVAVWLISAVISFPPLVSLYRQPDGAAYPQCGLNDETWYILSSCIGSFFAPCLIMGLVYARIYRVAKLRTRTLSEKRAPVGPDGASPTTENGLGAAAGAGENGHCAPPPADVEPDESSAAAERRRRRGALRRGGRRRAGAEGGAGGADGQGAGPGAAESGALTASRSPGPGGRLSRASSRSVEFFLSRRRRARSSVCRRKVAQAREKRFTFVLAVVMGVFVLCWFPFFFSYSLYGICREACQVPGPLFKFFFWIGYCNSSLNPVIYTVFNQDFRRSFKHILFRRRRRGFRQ
# Serine/threonine-protein kinase DCLK1 (Homo sapiens), sequence (O15075 whole entry): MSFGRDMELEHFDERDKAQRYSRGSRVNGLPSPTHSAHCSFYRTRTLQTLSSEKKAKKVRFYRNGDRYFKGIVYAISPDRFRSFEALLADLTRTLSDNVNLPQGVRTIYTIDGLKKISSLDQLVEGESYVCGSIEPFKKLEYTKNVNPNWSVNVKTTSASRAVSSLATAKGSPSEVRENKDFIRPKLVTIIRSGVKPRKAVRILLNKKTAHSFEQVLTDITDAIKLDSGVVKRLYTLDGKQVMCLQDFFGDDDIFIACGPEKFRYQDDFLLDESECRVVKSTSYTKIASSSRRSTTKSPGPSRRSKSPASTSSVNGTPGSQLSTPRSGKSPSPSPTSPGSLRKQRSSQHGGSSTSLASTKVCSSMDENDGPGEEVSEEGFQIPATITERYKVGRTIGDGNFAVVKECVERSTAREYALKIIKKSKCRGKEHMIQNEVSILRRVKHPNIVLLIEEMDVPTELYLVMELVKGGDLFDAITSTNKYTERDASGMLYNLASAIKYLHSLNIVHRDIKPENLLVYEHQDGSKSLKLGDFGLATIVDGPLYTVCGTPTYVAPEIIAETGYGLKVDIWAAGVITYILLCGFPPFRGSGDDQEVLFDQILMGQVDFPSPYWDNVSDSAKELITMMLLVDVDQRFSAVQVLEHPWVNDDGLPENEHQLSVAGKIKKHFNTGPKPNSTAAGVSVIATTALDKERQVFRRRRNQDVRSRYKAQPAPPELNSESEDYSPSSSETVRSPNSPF
# Serine/threonine-protein kinase BRSK1 (Homo sapiens), sequence (Q8TDC3 whole entry): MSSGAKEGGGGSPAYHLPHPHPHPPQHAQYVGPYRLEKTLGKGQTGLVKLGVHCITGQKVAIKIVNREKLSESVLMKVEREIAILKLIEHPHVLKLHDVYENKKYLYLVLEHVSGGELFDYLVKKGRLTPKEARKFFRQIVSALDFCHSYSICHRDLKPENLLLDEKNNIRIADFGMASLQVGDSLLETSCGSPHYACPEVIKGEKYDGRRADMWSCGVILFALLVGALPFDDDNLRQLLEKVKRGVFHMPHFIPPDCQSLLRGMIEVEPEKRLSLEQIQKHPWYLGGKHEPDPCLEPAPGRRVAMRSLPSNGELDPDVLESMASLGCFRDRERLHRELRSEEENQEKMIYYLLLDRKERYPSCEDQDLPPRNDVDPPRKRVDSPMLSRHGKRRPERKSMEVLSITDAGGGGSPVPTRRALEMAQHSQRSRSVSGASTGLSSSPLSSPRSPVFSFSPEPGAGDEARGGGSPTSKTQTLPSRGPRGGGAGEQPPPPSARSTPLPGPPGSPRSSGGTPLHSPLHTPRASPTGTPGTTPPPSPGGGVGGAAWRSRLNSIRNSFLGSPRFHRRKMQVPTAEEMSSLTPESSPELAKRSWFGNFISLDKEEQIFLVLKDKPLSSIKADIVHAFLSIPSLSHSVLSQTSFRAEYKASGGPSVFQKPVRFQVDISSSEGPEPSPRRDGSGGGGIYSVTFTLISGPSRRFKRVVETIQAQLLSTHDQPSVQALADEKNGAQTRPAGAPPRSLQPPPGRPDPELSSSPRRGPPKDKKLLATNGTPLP
# Receptor-type tyrosine-protein kinase FLT3 (Homo sapiens), P36888 [UNDEFINED MUTATION], sequence (P36888 whole entry, looked up, stated change not applied): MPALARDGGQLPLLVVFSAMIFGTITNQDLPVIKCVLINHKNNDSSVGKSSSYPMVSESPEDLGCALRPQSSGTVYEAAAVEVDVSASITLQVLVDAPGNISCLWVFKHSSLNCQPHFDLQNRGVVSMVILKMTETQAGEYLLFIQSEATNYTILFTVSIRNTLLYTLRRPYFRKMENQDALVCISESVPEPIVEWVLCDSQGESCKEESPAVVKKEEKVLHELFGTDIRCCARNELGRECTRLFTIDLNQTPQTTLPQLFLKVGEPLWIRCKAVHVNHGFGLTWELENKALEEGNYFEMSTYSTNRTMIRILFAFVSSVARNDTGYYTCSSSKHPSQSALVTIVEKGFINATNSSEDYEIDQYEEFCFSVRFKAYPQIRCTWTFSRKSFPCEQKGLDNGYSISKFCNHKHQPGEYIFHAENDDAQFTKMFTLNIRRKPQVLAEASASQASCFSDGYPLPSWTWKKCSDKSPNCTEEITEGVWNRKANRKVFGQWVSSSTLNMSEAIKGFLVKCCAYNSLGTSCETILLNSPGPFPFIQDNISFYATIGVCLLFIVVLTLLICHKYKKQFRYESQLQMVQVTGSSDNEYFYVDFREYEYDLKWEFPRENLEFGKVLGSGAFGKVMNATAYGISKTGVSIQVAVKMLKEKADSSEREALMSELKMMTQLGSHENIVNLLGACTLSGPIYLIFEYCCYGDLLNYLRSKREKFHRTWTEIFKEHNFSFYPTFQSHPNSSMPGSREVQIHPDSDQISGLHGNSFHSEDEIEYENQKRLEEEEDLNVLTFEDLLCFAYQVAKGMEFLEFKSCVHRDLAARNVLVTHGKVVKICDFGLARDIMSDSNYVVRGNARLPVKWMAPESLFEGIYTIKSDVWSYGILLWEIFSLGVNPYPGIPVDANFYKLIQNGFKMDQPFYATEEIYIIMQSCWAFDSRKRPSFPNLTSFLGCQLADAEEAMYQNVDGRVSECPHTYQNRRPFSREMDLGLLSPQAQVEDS
# Vasopressin V1a receptor (Homo sapiens), sequence (P37288 whole entry, looked up): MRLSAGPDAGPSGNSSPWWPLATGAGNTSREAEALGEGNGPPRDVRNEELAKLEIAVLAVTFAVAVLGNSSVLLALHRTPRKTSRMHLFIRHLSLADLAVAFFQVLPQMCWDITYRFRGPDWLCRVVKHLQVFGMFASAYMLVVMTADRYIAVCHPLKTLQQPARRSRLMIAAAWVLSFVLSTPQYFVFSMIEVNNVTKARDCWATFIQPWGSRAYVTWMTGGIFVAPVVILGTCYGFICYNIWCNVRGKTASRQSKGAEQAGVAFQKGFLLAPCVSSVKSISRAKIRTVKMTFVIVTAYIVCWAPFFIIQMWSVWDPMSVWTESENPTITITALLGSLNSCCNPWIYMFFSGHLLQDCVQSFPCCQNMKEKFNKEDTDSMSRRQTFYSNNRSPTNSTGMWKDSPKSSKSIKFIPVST
# Somatostatin receptor type 4 (Homo sapiens), sequence (P31391 whole entry): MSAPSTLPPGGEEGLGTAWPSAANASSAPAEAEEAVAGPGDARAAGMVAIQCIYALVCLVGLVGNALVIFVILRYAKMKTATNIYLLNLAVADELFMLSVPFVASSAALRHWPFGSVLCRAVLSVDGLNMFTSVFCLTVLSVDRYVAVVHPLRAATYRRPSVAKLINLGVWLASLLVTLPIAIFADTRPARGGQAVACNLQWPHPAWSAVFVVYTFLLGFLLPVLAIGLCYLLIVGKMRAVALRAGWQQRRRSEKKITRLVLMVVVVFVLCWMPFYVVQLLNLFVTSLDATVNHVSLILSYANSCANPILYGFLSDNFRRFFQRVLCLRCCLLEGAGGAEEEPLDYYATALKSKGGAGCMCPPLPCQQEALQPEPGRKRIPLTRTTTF
smiles,measurement,setting,value
N#CC1(c2ccccn2)CCN(Cc2cc(C(=O)O)c(=O)n3ccccc23)CC1 [MSD-M1PAM],inhibition,[1],9%
same,residual activity,[2],100%
same,inhibition,[3],-8%
same,inhibition,[4],11%
same,inhibition,[5],-3%
same,inhibition,[6],11%
same,inhibition,[7],-7.39%
same,inhibition,[8],-1%
same,inhibition,[9],29%
same,residual activity,[10],95%
same,inhibition,[11],6%
same,inhibition,[12],-3%
same,inhibition,[13],0%
same,inhibition,[14],7%
same,IC50,[15],91.5 µM
same,inhibition,[15]; Compound concentration 0.1 uM,-9%
same,inhibition,[15]; Compound concentration 1.0 uM,-3%
same,inhibition,[15]; Compound concentration 10.0 uM,11%
same,inhibition,[15]; Compound concentration 100.0 uM,52%
same,inhibition,[16],1%
same,residual activity,[17],100%
same,inhibition,[18],0%
same,inhibition,[19],9%
same,inhibition,[20],4%
same,inhibition,Rattus norvegicus [21],-10%
same,inhibition,Caspase-8 (Homo sapiens),9%
same,inhibition,Rattus norvegicus [22],-4%
same,residual activity,[23],65%
same,inhibition,[24],-5%
same,inhibition,[25],-7%
same,IC50,[26],10 µM (not active)
same,"inhibition at 60 min, 10 µM",[27],4% (not active)
same,residual activity,[28],92%
same,inhibition,[29],15%
same,"inhibition at 60 min, 10 µM",monoamine oxidase MAO-A,12% (not active)
same,inhibition,[30],5%
same,inhibition,[31],3%
N#CC1(c2ccccn2)CCN(Cc2cc(C(=O)N3CCCC3)c(=O)n3ccccc23)CC1,residual activity,[2],87%
same,inhibition,[32],2.79%
same,residual activity,[10],92%
same,residual activity,[17],91%
same,inhibition,[33],1.13%
same,residual activity,[23],100%
same,residual activity,[28],100%
